Tests used:
[1] = test system: Zsw101 (RNA, riboswitch) GGAUACAGGACUGGCGGAUUAGUGGAAGCAACCACGUGGACUGUAUCCGAAGAAAAGCCGACCGCCUGGGCAAAAAUUAGCCCAGGCGGUAUUUAUUUUU; assay: 1H NMR; settings: 50 mM KCl, 25 mM potassium phosphate, Mg2+; pH 6.2
[2] = test system: Zsw82 (RNA, riboswitch) GGAUACAGGACUGGCGGAUUAGUGGAAGCAACCACGUGGACUGUAUCCGAAGAAAAGCCGACCGCCUGGGCAAAAAUUAGC; assay: ITC and 1H NMR titration; settings: 50 mM KCl, 25 mM potassium phosphate, 10 mM Mg2+ (NMR); pH 6.2; minor binding-competent population prevented curve fitting
[3] = test system: Zsw81 (RNA, riboswitch) GGAUACAGGACUGGCGGAUUAGUGGAAGCAACCACGUGGACUGUAUCCGAAGAAAAGCCGACCGCCUGGGCAAAAAUUAG; assay: 1H NMR titration, U42 imino intensity; settings: 50 mM KCl, 25 mM potassium phosphate, 10 mM Mg2+; pH 6.2; RNA concentration free in fit, binding-competent fraction 43%
[4] = test system: Zsw86 (RNA, riboswitch) GGAUACAGGACUGGCGGAUUAGUGGAAGCAACCACGUGGACUGUAUCCGAAGAAAAGCCGACCGCCUGGGCAAAAAUUAGCCCAG; assay: 1H NMR titration; settings: 50 mM KCl, 25 mM potassium phosphate, 10 mM Mg2+; pH 6.2; up to 2 eq. ZMP
[5] = test system: Zsw85 (RNA, riboswitch) GGAUACAGGACUGGCGGAUUAGUGGAAGCAACCACGUGGACUGUAUCCGAAGAAAAGCCGACCGCCUGGGCAAAAAUUAGCCCA; assay: 1H NMR titration; settings: 50 mM KCl, 25 mM potassium phosphate, 10 mM Mg2+; pH 6.2; up to 2 eq. ZMP
[6] = test system: Zsw87 (RNA, riboswitch) GGAUACAGGACUGGCGGAUUAGUGGAAGCAACCACGUGGACUGUAUCCGAAGAAAAGCCGACCGCCUGGGCAAAAAUUAGCCCAGG; assay: 1H NMR titration; settings: 50 mM KCl, 25 mM potassium phosphate, 10 mM Mg2+; pH 6.2; up to 2 eq. ZMP
[7] = test system: Zsw84 (RNA, riboswitch) GGAUACAGGACUGGCGGAUUAGUGGAAGCAACCACGUGGACUGUAUCCGAAGAAAAGCCGACCGCCUGGGCAAAAAUUAGCCC; assay: 1H NMR titration; settings: 50 mM KCl, 25 mM potassium phosphate, 10 mM Mg2+; pH 6.2; up to 2 eq. ZMP
[8] = test system: Zsw77 (RNA, riboswitch) GGAUACAGGACUGGCGGAUUAGUGGAAGCAACCACGUGGACUGUAUCCGAAGAAAAGCCGACCGCCUGGGCAAAAA; assay: 1H NMR titration, U42 imino intensity; settings: 50 mM KCl, 25 mM potassium phosphate, 10 mM Mg2+; pH 6.2; RNA concentration free in fit, binding-competent fraction 70%
[9] = test system: Zsw91 (RNA, riboswitch) GGAUACAGGACUGGCGGAUUAGUGGAAGCAACCACGUGGACUGUAUCCGAAGAAAAGCCGACCGCCUGGGCAAAAAUUAGCCCAGGCGGU; assay: ITC; settings: K+ (50 mM KCl, 25 mM potassium phosphate); Mg2+ for ITC not stated; pH 6.2; 60 μM RNA, 600 μM ZMP in syringe
[10] = test system: Zsw48+Zsw15 (RNA, riboswitch) GGAUACAGGACUGGCGGAUUAGUGGAAGCAACCACGUGGACUGUAUCCG/GCCGACCGCCUGGGC; assay: 1H NMR; settings: 50 mM KCl, 25 mM potassium phosphate, 10 mM Mg2+; pH 6.2; 100 μM RNA, 2 eq. ZMP; affinity lower than Zsw77
[11] = test system: Zsw83 (RNA, riboswitch) GGAUACAGGACUGGCGGAUUAGUGGAAGCAACCACGUGGACUGUAUCCGAAGAAAAGCCGACCGCCUGGGCAAAAAUUAGCC; assay: 1H NMR titration; settings: 50 mM KCl, 25 mM potassium phosphate, 10 mM Mg2+; pH 6.2; 120 μM RNA; up to 2 eq. ZMP
[12] = test system: Zsw77 (RNA, riboswitch) GGAUACAGGACUGGCGGAUUAGUGGAAGCAACCACGUGGACUGUAUCCGAAGAAAAGCCGACCGCCUGGGCAAAAA; assay: ITC; settings: K+ 50 mM KCl + 25 mM potassium phosphate; Mg2+ 10 mM MgCl2 (assumed from NMR prep); pH 6.2; 60 μM RNA; stoichiometry free, binding-competent fraction 53%
[13] = test system: Zsw81 (RNA, riboswitch) GGAUACAGGACUGGCGGAUUAGUGGAAGCAACCACGUGGACUGUAUCCGAAGAAAAGCCGACCGCCUGGGCAAAAAUUAG; assay: ITC; settings: K+ 50 mM KCl + 25 mM potassium phosphate; Mg2+ 10 mM MgCl2 (assumed from NMR prep); pH 6.2; 60 μM RNA; stoichiometry free, binding-competent fraction 13%
[14] = test system: Zsw90 (RNA, riboswitch) GGAUACAGGACUGGCGGAUUAGUGGAAGCAACCACGUGGACUGUAUCCGAAGAAAAGCCGACCGCCUGGGCAAAAAUUAGCCCAGGCGG; assay: 1H NMR titration; settings: 50 mM KCl, 25 mM potassium phosphate, 10 mM Mg2+; pH 6.2; up to 2 eq. ZMP
[15] = test system: Zsw89 (RNA, riboswitch) GGAUACAGGACUGGCGGAUUAGUGGAAGCAACCACGUGGACUGUAUCCGAAGAAAAGCCGACCGCCUGGGCAAAAAUUAGCCCAGGCG; assay: 1H NMR titration; settings: 50 mM KCl, 25 mM potassium phosphate, 10 mM Mg2+; pH 6.2; up to 2 eq. ZMP

- binding [1]: no
- binding [2]: weak
- dissociation constant [3]: 2.58 µM
- binding [4]: no
- binding [5]: no
- binding [6]: no
- binding [7]: no
- dissociation constant [8]: 2.78 µM
- binding [9]: no
- binding [10]: yes
- binding [11]: no
- dissociation constant [12]: 0.57 µM
- dissociation constant [13]: 0.54 µM
- binding [14]: no
- binding [15]: no
SMILES: NC(=O)c1ncn([C@@H]2O[C@H](COP(=O)(O)O)[C@@H](O)[C@H]2O)c1N

Reference: paper PMC7337938 (2020)
